The values below come from patent US20230285405A1, “Pharmaceuticals for Treating or Preventing Nidoviruses and Picornaviruses” (priority 2020, published 2023).

Each structure is given as a SMILES string. Where a name gives a salt, the structure may show the parent alone. Read-outs that look alike come from different tables or passages of the source.

The subject of data set [1] is OC43. As to the kind of experiment: Drug screening: OC43 nucleoprotein staining in infected A549-mRuby cells. The format is cell-based, human beta coronavirus OC43. To be noted: for activity at 10 µM: Betacoronavirus 1, OC43, 96 h. Put shortly: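 Repurposing screen: drugs at 10 μM final added 1 h after OC43 infection (MOI 0.3) of H2B-mRuby A549 cells, 4-day incubation at 33° C. Cell counts imaged at day 0 and day 4; nucleoprotein staining per cell normalized to untreated infected wells, hit threshold >3 SD in duplicate screens, non-toxic.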

The subject of data set [2] is A549-mRuby cells. As to the kind of experiment: Drug screening: effect on cell growth (cell number day 4 / day 0). To be noted: 10 μM drug; for Growth_1: number of cells at day 4 divided by number of cells at day 0 / toxic_1: repeat #1; for Growth_2: number of cells at day 4 divided by number of cells at day 0 / toxic_2: repeat #2. An outline of the steps:
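Growth was scored as day 4/day 0 cell count from images of OC43-infected (MOI 0.3) A549-mRuby nuclear-reporter cells. Compounds were added at 10 μM final after a 1 h infection at 33° C, followed by 4 days of culture at 33° C in two independent screens.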

Setting [3] is: 10 μM drug, MOI 0.3, 4 days, OC43 staining normalized to no-drug controls, mean of the two screen repeats.
[4] abbreviates: 10 μM drug, MOI 0.3, 4 days, normalized to no-drug controls in the same plate, repeat #1.
The mark [5] stands for this setting: 10 μM drug, MOI 0.3, 4 days, normalized to no-drug controls in the same plate, repeat #2.
[6] abbreviates: 10 μM drug, MOI 0.3, 4 days, normalized to no-drug controls in the same plate, repeat #1, read-out: OC43_1: % staining of OC43 in screen repeat #1.
Where [7] appears, read: 10 μM drug, MOI 0.3, 4 days, normalized to no-drug controls in the same plate, repeat #2, read-out: OC43_2: % staining of OC43 in screen repeat #2.
[8] abbreviates: 10 μM drug, MOI 0.3, 4 days, OC43 staining normalized to no-drug controls, mean of the two screen repeats, read-out: OC43_mean.

On to `CCC(=O)O[C@]1(C(=O)SCF)[C@H](C)C[C@H]2[C@@H]3C[C@H](F)C4=CC(=O)C=C[C@]4(C)[C@@]3(F)[C@@H](O)C[C@@]21C` [Fluticasone propionate], for which the OC43_mean in data set [1] (setting [3]) is reported as 48.8%. Also, the “OC43_1: % staining of OC43 in screen repeat #1” value (shortened to “OC43_1: % staining of OC43”) in data set [1] (setting [4]) turned out to be 48.4%. In addition, the “OC43_2: % staining of OC43 in screen repeat #2” value (“OC43_2: % staining of OC43” below) in data set [1] (setting [5]) turned out to be 49.2%. This compound also registered a hit_1 in data set [1] (10 μM drug, repeat #1) of 1. Further, the hit_2 in data set [1] (10 μM drug, repeat #2) came to 1. In addition, in data set [2], the “Growth_1: number of cells at day 4 divided by number of cells at day 0” value turned out to be 3.8, the toxic_1 was found to be 0, the “Growth_2: number of cells at day 4 divided by number of cells at day 0” value came out at 4.2 and the toxic_2 was 0.
`COCCCC/C(=N\OCCN)c1ccc(C(F)(F)F)cc1` [Fluvoxamine maleate] displayed a hit_1 in data set [1] (10 μM drug, repeat #1) of 1. Also, the hit_2 in data set [1] (10 μM drug, repeat #2) is given as 1. Also, the activity at 10 µM in data set [1] (setting [6]) turned out to be 22.7%. For the same compound, the activity at 10 µM in data set [1] (setting [7]) amounted to 38.9%. The activity at 10 µM in data set [1] (read-out: OC43_mean) stood at 30.8%. In addition, in data set [2], the “Growth_1: number of cells at day 4 divided by number of cells at day 0” value was found to be 5.4, the toxic_1 was determined as 0, the “Growth_2: number of cells at day 4 divided by number of cells at day 0” value was found to be 4.5 and the toxic_2 is listed as 0.
In data set [1] (setting [3]), `COc1cc2ncnc(Nc3ccc(F)c(Cl)c3)c2cc1OCCCN1CCOCC1` [Gefitinib (ZD1839), Gefitinib] displayed an OC43_mean of 35.5%. For the same compound, the “OC43_1: % staining of OC43” value in data set [1] (setting [4]) worked out at 39.7%. Besides, the “OC43_2: % staining of OC43” value in data set [1] (setting [5]) was determined as 31.3%. Further, in data set [2], the “Growth_1: number of cells at day 4 divided by number of cells at day 0” value came out at 3.4 and the “Growth_2: number of cells at day 4 divided by number of cells at day 0” value amounted to 3.7.
As for `COc1cc2ncnc(Nc3ccc(F)c(Cl)c3)c2cc1OCCCN1CCOCC1` [Gefitinib hydrochloride], the hit_1 in data set [1] (10 μM drug, repeat #1) turned out to be 1. The compound further came in with a hit_2 in data set [1] (10 μM drug, repeat #2) of 1. Further, the activity at 10 µM in data set [1] (setting [8]) worked out at 23.9%. For the same compound, the activity at 10 µM in data set [1] (setting [6]) stood at 20%. Further, the activity at 10 µM in data set [1] (setting [7]) stood at 27.8%. In data set [2], this compound displayed a toxic_1 of 0 and a toxic_2 of 0. In addition, in data set [2] (hydrochloride), the “Growth_1: number of cells at day 4 divided by number of cells at day 0” value amounted to 3.5 and the “Growth_2: number of cells at day 4 divided by number of cells at day 0” value turned out to be 3.3.
In data set [1] (10 μM drug, repeat #1), `N=C(N)N/N=C/c1c(Cl)cccc1Cl` [Guanabenz Acetate] yielded a hit_1 of 1. In data set [1] (10 μM drug, repeat #2), this compound showed a hit_2 of 1. In addition, in data set [1] (setting [8]), the activity at 10 µM is 34.6%. In addition, in data set [1] (setting [6]), the activity at 10 µM worked out at 31.1%. For the same compound, the activity at 10 µM in data set [1] (setting [7]) was determined as 38.1%. Further, in data set [2], the “Growth_1: number of cells at day 4 divided by number of cells at day 0” value was found to be 5.3, the toxic_1 amounted to 0, the “Growth_2: number of cells at day 4 divided by number of cells at day 0” value was 4.4 and the toxic_2 is recorded as 0.
Turning to `CCN(CCO)CCCC(C)Nc1ccnc2cc(Cl)ccc12` (centres unmarked) [Hydroxychloroquine Sulfate], the hit_1 in data set [1] (10 μM drug, repeat #1) is reported as 1. This compound also returned a hit_2 in data set [1] (10 μM drug, repeat #2) of 1. In data set [1] (setting [8]), the activity at 10 µM amounted to 16.2%. Moreover, the activity at 10 µM in data set [1] (setting [6]) was 17.8%. In addition, the activity at 10 µM in data set [1] (setting [7]) turned out to be 14.6%. For the same compound, in data set [2], the “Growth_1: number of cells at day 4 divided by number of cells at day 0” value was determined as 5.1, the toxic_1 worked out at 0, the “Growth_2: number of cells at day 4 divided by number of cells at day 0” value was found to be 4.9 and the toxic_2 turned out to be 0.
Turning to `CS(=O)(=O)CCNCc1ccc(-c2ccc3ncnc(Nc4ccc(OCc5cccc(F)c5)c(Cl)c4)c3c2)o1.Cc1ccc(S(=O)(=O)O)cc1.Cc1ccc(S(=O)(=O)O)cc1` [Lapatinib (GW-572016) Ditosylate], in data set [1] (setting [3]), the OC43_mean is 24.8%. Moreover, the “OC43_1: % staining of OC43” value in data set [1] (setting [4]) was determined as 17.6%. Moreover, the “OC43_2: % staining of OC43” value in data set [1] (setting [5]) came to 32.0%. Besides, the hit_1 in data set [1] (10 μM drug, repeat #1) was 1. The same compound showed a hit_2 in data set [1] (10 μM drug, repeat #2) of 1. In data set [2], the “Growth_1: number of cells at day 4 divided by number of cells at day 0” value came to 5.0, the toxic_1 amounted to 0, the “Growth_2: number of cells at day 4 divided by number of cells at day 0” value was found to be 5.9 and the toxic_2 stood at 0.
